# Data published in paper PMC8346053, “Towards Novel 3-Aminopyrazinamide-Based Prolyl-tRNA Synthetase Inhibitors: In Silico Modelling, Thermal Shift Assay and Structural Studies” (International Journal of Molecular Sciences, 2021).
# Several values for one entry are separate records, joined by “and”; a condition that tells them apart may be missing. Equal values may be shown once. Read-outs that look alike come from different tables or passages of the source.
# Tests used:
# HcProRS [1] = molecular target: HcProRS; design: method as in PMID 28501621; details: in the presence of Pro; cited from earlier work
# HcProRS versus ThrRS = system: HcProRS versus ThrRS; design: method as in PMID 28501621; details: reportedly; cited from earlier work
# recombinant HcProRS = molecular target: T1, recombinant HcProRS (Homo sapiens, UniProt P07814); experiment: fluorescence-based thermal shift assay (TSA); assay type: binding; details: for Tm with 1 mM L-Pro / Tm without L-Pro / ∆Tm without L-Pro / ∆Tm with 1 mM L-Pro: 100 µM compound; for Tm with 1 mM L-Pro / Tm without L-Pro / EC50 / ∆Tm without L-Pro / ∆Tm with 1 mM L-Pro: 3.45 µM HcProRS; for Tm with 1 mM L-Pro: reference Tm with Pro only 60.20; for Tm without L-Pro / ∆Tm without L-Pro: absence of Pro; for Tm without L-Pro: reference Tm of HcProRS 56.15; for ∆Tm without L-Pro: difference of Tm with and without compound; for ∆Tm with 1 mM L-Pro: versus HcProRS with 1 mM Pro only; for effect on Tm (in words): full datasets, with and without Pro; for fold better (lower) EC50 compared with 4d: relative to 4d
# T1 construct: SUMO (N, cleaved yes); made in house; host or cells: E. coli Rosetta 2 (DE3) pLysS
# T1 sequence (P07814 1001-1512): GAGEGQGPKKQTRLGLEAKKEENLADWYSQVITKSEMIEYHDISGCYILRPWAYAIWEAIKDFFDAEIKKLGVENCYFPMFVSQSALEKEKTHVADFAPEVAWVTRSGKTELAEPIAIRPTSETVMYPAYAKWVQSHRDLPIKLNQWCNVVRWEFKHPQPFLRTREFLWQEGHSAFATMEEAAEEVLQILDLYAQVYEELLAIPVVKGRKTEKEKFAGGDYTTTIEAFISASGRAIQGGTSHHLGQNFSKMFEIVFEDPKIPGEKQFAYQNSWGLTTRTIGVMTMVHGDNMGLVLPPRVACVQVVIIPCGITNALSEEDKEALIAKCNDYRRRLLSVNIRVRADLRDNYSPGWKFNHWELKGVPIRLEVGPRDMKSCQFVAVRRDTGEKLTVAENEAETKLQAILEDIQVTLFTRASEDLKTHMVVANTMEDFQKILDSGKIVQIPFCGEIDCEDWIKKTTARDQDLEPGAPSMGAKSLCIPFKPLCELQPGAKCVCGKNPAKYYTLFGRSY
# Procedure: Compound binding usually helps to stabilize the protein due to protein-ligand interactions, resulting in an increase of the melting temperature (Tm) of the target protein during the thermal denaturation process. Each compound was pre-tested at 100 µM concentration against 3.45 µM HcProRS in the absence and presence of 1 mM Pro. The ∆Tm was calculated based on the difference between the Tm values of HcProRS with and without compound. […] In the presence of the natural substrate Pro, the Tm of HcProRS increased by 4 °C. […] In a second-tier characterization, the Tm-based EC50 values of these five hits were determined. […] This is in good agreement with the prior reported improved binding affinity and inhibitory activity of 2a in the presence of Pro when compared to the corresponding values obtained without Pro [16].
# A total of 0.2 mg/mL HcProRS (corresponding to 3.45 µM) was incubated with various concentrations of different compounds in the absence or presence of 1 mM L-Pro with 1x thermal shift dye (Life Technologies, California, USA) in reaction buffer containing 50 mM HEPES pH 7.0, 150 mM KCl and 10% (v/v) ethylene glycol. Aliquots (20 µL) were transferred to a 96-well PCR plate in triplicate. After centrifugation to remove air bubbles, the plate was measured in Applied Biosystems® Protein Thermal Shift machine and subjected to a thermal gradient from 4 °C to 95 °C with the increasing rate of 0.05 °C/s. The fluorescence was detected by Protein Thermal Shift™ Software (Life Technologies, California, USA). Data analysis was performed by Boltzmann sigmoidal fitting to calculate melting temperature (Tm).
# Figure S2. Dose-response melting curves of HcProRS in the presence of compound and 1 mM Pro. The melting temperature (Tm) at each compound concentration was determined by TSA with 3.45 µM of HcProRS. The reported EC50 values are based on the fitted curves. All reactions were performed in triplicate, the average values and standard errors are shown.
# (1 picture or pasted object on this page, not shown here)
# HcProRS [2] = system: HcProRS; design: method as in PMID 28501621; details: ATP/PPi exchange assay in vitro; read-out: IC50, HcProRS inhibitory activity; cited from earlier work
# [3] = 1 mM Pro, read-out: EC50 (Tm-based) with 1 mM L-Pro
Tm with 1 mM L-Pro (recombinant HcProRS; 1 mM Pro),Tm without L-Pro (recombinant HcProRS),EC50 (recombinant HcProRS; [3]),∆Tm without L-Pro (recombinant HcProRS),∆Tm with 1 mM L-Pro (recombinant HcProRS),Compound,further results
59.36 °C,55.80 °C,–,−0.35 °C,−0.84 °C,NC(=O)c1nccnc1NCc1ccccc1 [4a],–
60.42 °C,55.38 °C,–,−0.77 °C,+0.22 °C,NC(=O)c1nccnc1NCc1cccc(Cl)c1 [4b],–
57.47 °C,54.57 °C,–,−1.58 °C,−2.73 °C,NC(=O)c1nccnc1NCc1ccc(Cl)c(Cl)c1 [4c],–
63.33 °C,55.91 °C,91.1 ± 18.4 µM,−0.24 °C,+3.13 °C,Cc1ccccc1CNc1nccnc1C(N)=O [4d],–
58.70 °C,55.06 °C,–,−1.09 °C,−1.5 °C,NC(=O)c1nccnc1NCc1ccc(Cl)cc1 [4e],–
58.33 °C,56.34 °C,–,+0.19 °C,−1.87 °C,COc1ccc(CNc2nccnc2C(N)=O)cc1 [4f],–
59.09 °C,55.76 °C,–,−0.39 °C,−1.11 °C,Cc1ccc(CNc2nccnc2C(N)=O)cc1 [4g],–
62.47 °C,57.04 °C,13.6 ± 3.27 µM,–,+2.27 °C,NC(=O)c1nccnc1NCc1ccccc1Cl [4h],fold better (lower) EC50 compared with 4d (recombinant HcProRS; TSA EC50 with 1 mM Pro): 6 fold and 7 fold
60.30 °C,55.46 °C,–,−0.69 °C,+0.10 °C,NC(=O)c1nccnc1NCc1ccccc1F [4i],–
67.12 °C,58.13 °C,15.3 ± 1.04 µM,–,+6.92 °C,NC(=O)c1nccnc1NCc1ccccc1C(F)(F)F [4j],fold better (lower) EC50 compared with 4d (recombinant HcProRS; TSA EC50 with 1 mM Pro): 6 fold and 7 fold
58.48 °C,56.08 °C,–,−0.07 °C,−1.72 °C,COc1ccc(CNc2nccnc2C(N)=O)c(OC)c1 [4k],–

# The next lines start with the compound.
Compound,Tm with 1 mM L-Pro (recombinant HcProRS; 1 mM Pro),Tm without L-Pro (recombinant HcProRS),EC50 (recombinant HcProRS; [3]),∆Tm without L-Pro (recombinant HcProRS),∆Tm with 1 mM L-Pro (recombinant HcProRS),further results
"O=C(NC1Cc2ccccc2C1)c1nccnc1NC(=O)C1CCCCC1 [2a, 3-(cyclohexanecarboxamido)-N-(2,3-dihydro-1H-inden-2-yl)pyrazine-2-carboxamide, reference compound]",73.35 °C,63.15 °C,3.74 ± 0.67 µM,–,–,"Kd (HcProRS [1]): 0.00076 µM; selectivity for HcProRS versus ThrRS (HcProRS versus ThrRS): 2500 fold; EC50 (recombinant HcProRS; no Pro, read-out: EC50 (Tm-based) in the absence of Pro): 30.3 ± 3.63 µM; IC50 (HcProRS [2]): 0.012 µM"
"Nc1nccnc1C(=O)O [3-NH2-POA, 3-aminopyrazinoic acid, reference compound]",59.50 °C,55.87 °C,–,−0.28 °C,−0.70 °C,effect on Tm (in words) (recombinant HcProRS): no effect on Tm
O=C(NCc1ccc(F)cc1)c1nccnc1NCc1ccc(F)cc1 [3a],58.21 °C,55.25 °C,–,−0.90 °C,−1.99 °C,–
O=C(NCc1ccccc1Cl)c1nccnc1NCc1ccccc1Cl [3b],64.92 °C,56.05 °C,3.77 ± 0.85 µM,−0.10 °C,+4.72 °C,"fold lower EC50 relative to 3c (recombinant HcProRS; TSA EC50 with 1 mM Pro, relative to 3c): 2 fold; fold lower EC50 compared with 4h (recombinant HcProRS; TSA EC50 with 1 mM Pro, relative to 4h): 3.6 fold"
Cc1ccccc1CNC(=O)c1nccnc1NCc1ccccc1C [3c],62.72 °C,55.25 °C,7.34 ± 1.66 µM,−0.90 °C,+2.52 °C,fold better (lower) EC50 compared with 4d (recombinant HcProRS; TSA EC50 with 1 mM Pro): 12.4 fold
"O=C(O)c1cnccn1 [POA, pyrazinoic acid, reference compound]",59.06 °C,55.52 °C,–,−0.63 °C,−1.14 °C,effect on Tm (in words) (recombinant HcProRS): no effect on Tm
"NC(=O)c1cnccn1 [PZA, pyrazinamide]",59.04 °C,56.06 °C,–,−0.09 °C,−1.16 °C,effect on Tm (in words) (recombinant HcProRS): no effect on Tm
"O=C(O)[C@@H]1CCCN1 [Pro, proline]",–,–,–,–,–,"increase of Tm of HcProRS by natural substrate Pro (recombinant HcProRS; 1 mM Pro, no compound): 4 °C"
